# In patent publication US20190365666A1, “METHODS FOR PREVENTION AND TREATMENT OF CARDIOMETABOLIC SYNDROME AND COMPOSITIONS USED THEREIN” (OmniActive Health Technologies Limited, priority 2015, published 2019):
# Assays:
# [1] = tested on: BCO2, TNF-α, PPAR-γ, Nrf-2, NFkB, IRS-1, HO-1 in liver tissue; experiment: Western blot of liver tissue markers in HFD treated rats; format: in vivo, Sprague Dawley rats
# Experimental: (§1) After a one week period of adaptation to laboratory conditions, the animals were randomly divided into four equal groups: 1) Control (n=7): untreated rats were allowed free access to a standard diet; 2) BCX Group, rats were fed a standard diet supplemented with beta-cryptoxanthin (n=7) 2.5 mg/kg; 3) HFD Group (high-fat diet; 42% of calories from fat; n=7): rats were fed a high-fat diet 4) HFD+BCX Group, rats were fed a high-fat diet (42% of calories from fat; n=7) supplemented with beta-cryptoxanthin 2.5 mg/kg. 5% suspension of beta-cryptoxanthin was dissolved in corn oil. At the end of the experiment, all rats were sacrificed by cervical dislocation. Blood samples were taken from rats in the morning upon overnight fasting for biochemical analyses and their visceral fat and liver samples were removed and weighed after sacrificing the animals.
# For Western blot analyses protein extraction was performed by homogenizing the liver in 1 ml ice-cold hypotonic buffer A, containing 10 mM2-[4-(2-Hydroxyethyl)-1-piperazinyl] ethanesulfonic acid [HEPES] (pH 7.8), 10 mMKCl, 2 mM MgCl2, 1 mM DTT, 0.1 mM EDTA, and 0.1 mM phenylmethylsulfonyl-fluoride (PMSF). The homogenates were added with 80 μl of 10% Nonidet P-40 (NP-40) solution and then centrifuged at 14,000×g for 2 min. The precipitates were washed once with 500 μl of buffer A plus 40 μl of 10% NP-40, centrifuged, re-suspended in 200 μl of buffer C [50 mM HEPES [pH 7.8], 50 mMKCl, 300 mM NaCl, 0.1 mM EDTA, 1 mM dihiothreitol [DTT], 0.1 mM PMSF, 20% glycerol], and recentrifugedat 14,800×g for 5 min. The supernatants were collected for determinations of NF-KB, VEGF, iNOS, ICAM, Nrf2, and HO-1 according to the method described by Sahin et al. [2012]. Equal amounts of protein (50 μg) were electrophoresed and subsequently transferred onto a nitrocellulose membrane (Schleicher and Schuell Inc., Keene, N.H., USA).
# Antibodies against NF-κB, TNF-α, Nrf2, HO-1, PPAR-γ, and p-IRS1, (Abcam (Cambridge, UK) were diluted (1:1000) in the same buffer containing 0.05% Tween-20. Protein loading was controlled sing a monoclonal mouse antibody against β-actin (A5316; Sigma). Bands were analyzed densitometrically using an image analysis system (Image J; National Institute of Health, Bethesda, USA). (FIG. 12)
# [2] = tested on: differentiated 3T3-L1 cells; experiment: Real time PCR gene expression (nutrigenomics) study in differentiated 3T3-L1 adipocytes; format: cell-based, murine; details: 12.5 ug/mL, versus DMSO
# Experimental: 3T3L1 murine adipocytes model system was used to understand basic cellular mechanisms associated with diabetes, obesity and related disorders. Nutrigenomics study was carried out to evaluate effect of beta-cryptoxanthin on adipocyte cells, particularly differentiated 3T3-L1 cells, the study was based on real-time polymerase chain reaction (Real time PCR) with dose 12.5 ug/mL. The effect of beta-cryptoxanthin on Adipocyte differentiation and its activity for bio markers PPARG, SCD-1, acetyl Coa carboxylase (ACC), SREBP-1, C/EBPα and FAS were evaluated.
# See FIG. 4, where each set of bar graphs for tests with BCX and without BCX (DMSO) correspond from the leftside bar respectively with the heading legend of the factors tested (i.e. for the bar results of BCX, 0.9 for ACC alpha, 0.39 for C/EPB alpha, 0.33 for FAS, 0.7 for PPAR gamma, and 0.38 for SCD-1).
# [3] = Oxidative stress markers and antioxidant status (TBARS/MDA, TAC, SOD, CAT, GSHPx) in serum, retina and liver of control and HFD rats; format: in vivo, Sprague Dawley rats; details: 2.5 mg/kg daily, 12 weeks
# Experimental: (§2) Male Sprague Dawley rats (7 rats/group, age: 8 week, weight: 180±20 g) were housed in a controlled environment with a 12:12-h light-dark cycle at 22° C. and provided with rat chow and water ad libitum. All experiments were conducted under the National Institutes of Health's Guidelines for the Care and Use of Laboratory Animals and approved by the Ethics Committee of the Veterinary Control Institute. After acclimation for 2 weeks, the rats were divided into four groups: Rats were randomly divided into the following groups: (1) Control, (2) High Fat Diet (HFD) (42% of calories from fat), (3) control+beta-cryptoxanthin (2.5 mg/kg) 4) HFD (42% of calories from fat)+beta-cryptoxanthin (2.5 mg/kg) was administered daily as supplement for 12 weeks.
# as §1
# The total antioxidant capacity (TAC) was measured using an antioxidant assay kit (Sigma, St Louis, Mo., USA). Trolox was used as an antioxidant standard to calculate Trolox equivalent antioxidant capacity; absorbance readings were taken at 520 nm. Lipid peroxidation was measured in terms of MDA formation, which is the major product of membrane lipid peroxidation done by a previously described method (Karatepe, 2004) with slight modification.
# The liver MDA content was measured by high performance liquid chromatography (HPLC, Shimadzu, Tokyo, Japan) using a Shimadzu UV-vis SPD-10 AVP detector and a CTO-10 AS VP column in a mobile phase consisting of 30 mM KH2PO4 and methanol (82.5+17.5, v/v; pH 3.6) at a flow rate of 1.2 ml/min. Column effluents were monitored at 250 nm and the volume was 20 μl. The liver homogenate (10%, w/v) was prepared in 10 mM phosphate buffer (pH 7.4), centrifuged at 13,000×g for 10 min at 4° C., and the supernatant was collected and stored at −80° C. for MDA analysis (Karatepe, 2004). Activities of superoxide dismutase (SOD), catalase (CAT) and glutathione peroxidase (GPx) of homogenized liver were measured using a commercial kit (Cayman Chemical, Ann Arbor, Mich., USA) according to the manufacturer's instructions.
# [4] = Serum glucose, insulin, leptin, adiponectin and lipid profile in control and HFD rats; format: in vivo, Sprague Dawley rats; details: 2.5 mg/kg daily, 12 weeks
# Experimental: as §2, §1
# Blood was collected by cardiac puncture using an anticoagulant-free vacutainer tube, later centrifuged at 3,000×g for 10 min to obtain serum and kept frozen at −80° C. until it was assayed for biochemical parameters and malondialdehyde (MDA). Serum biochemical parameters were estimated using an automatic analyzer (Samsung LABGEO PT10, Samsung Electronics Co, Suwon, Korea). Repeatability and device/method precision of LABGEO^PT10 was established according to the IVR-PT06 guideline. Serum insulin, leptin and adiponectin levels were measured with the Rat Insulin Kit (Linco Research Inc, St. Charles, Mo., USA) by ELISA (Elx-800; Bio-Tek Instruments Inc, Vermont, USA).
# [5] = tested on: VEGF, Nrf-2, NFkB, iNOS, ICAM-1, HO-1 in retina tissue; experiment: Western blot of retina tissue markers in HFD treated rats; format: in vivo, Sprague Dawley rats; details: FIG. 8
# [6] = Body weight, feed intake, visceral fat and liver weight in control and high fat diet rats; format: in vivo, Sprague Dawley rats; details: 2.5 mg/kg daily, 12 weeks
# Experimental: as §2
# The experiment was performed using 28 male Sprague-Dawley rats (8 weeks old, weighing 180±20 g), purchased from the Inonu University Laboratory Animal Research Center (Malatya, Turkey). Rats were housed in cages in a temperature and humidity controlled environment, on a 12-hr light and 12-hr dark cycle, designed for the purpose of the study. The temperature inside the rat cages was 21±2° C., relative humidity was 55±5% and consecutive light-dark cycles lasted 12 hours. The protocol of the study was approved by the Animal Experimentation Ethics Committee of Inonu University (Malatya, Turkey). All procedures involving rats were conducted in strict compliance with relevant laws, the Animal Welfare Act, Public Health Services Policy, and guidelines established by the Institutional Animal Care and Use Committee of the Institute. Prior the starting the experiment, animals were assigned to either a regular diet (control; 12% of calories from fat) or a high-fat diet (HFD, 42% of calories from fat). Control or HFD composed according to the American Institute of Nutrition AIN-93 (Reeves et al., 1993) recommendations of casein (20%), soybean oil (7%), wheat starch (53.2%), sucrose (10%), potato starch (5%), 1-cysteine (0.3%), vitamin mix AIN-93M (1%) and mineral mix AIN-93M (3.5%). The high-fat diets (42% calories from fat) were obtained from the basal AIN-93 diet, by replacement of wheat starch with fat (tallow 15% and soybean oil 10%). For induction of obesity (insulin resistance), the rats were fed with HFD for 12 weeks
# as §1
# [7] = tested on: BCO2, TNF-α, PPAR-γ, Nrf-2, NFkB, IRS-1, HO-1 in liver tissue; experiment: Western blot of liver tissue markers in HFD treated rats; format: in vivo, Sprague Dawley rats; details: P<0.001
# [8] = HFD rats, Western blot, P<0.001
# [9] = HFD rats, listed as BC, 2.5 mg/kg
# [10] = HFD rats, listed as Beta-cryptoxanthin, 2.5 mg/kg
smiles,measurement,setting,value
"CC1=C(/C=C/C(C)=C/C=C/C(C)=C/C=C/C=C(C)/C=C/C=C(C)/C=C/C2=C(C)C[C@@H](O)CC2(C)C)C(C)(C)CCC1 [BCX, beta-cryptoxanthin]",BCO2 expression in liver tissue (effect in words),[1]; FIG. 13,upregulate
same,Nrf2 expression in liver tissue (effect in words),"[1]; HFD rats, FIG. 16",decrease
same,NFkB in liver tissue (effect in words),"[1]; HFD rats, FIG. 17",decreased
same,HO-1 in liver tissue (effect in words),"[1]; HFD rats, FIG. 18",decreased
same,IRS-1 in liver (effect in words),"[1]; HFD rats, FIG. 19",increased
same,enhancement of liver HO-1 level,[1]; [8],1.41 fold
same,enhancement of liver p-IRS1 level,[1]; [8],1.33 fold
same,inhibition of liver NFkB expression,[1]; [8],22%
same,inhibition of liver TNF-α expression,[1]; [8],14%
same,PPAR gamma in liver tissue (effect in words),"[1]; HFD treated rats, FIG. 15",activated
same,ACC alpha expression (FIG. 4 bar result),[2],0.9
same,PPAR gamma expression (FIG. 4 bar result),[2],0.7
same,Liver CAT,"[3]; HFD rats, 2.5 mg/kg",increased
same,Liver SOD,"[3]; HFD rats, 2.5 mg/kg",increased
same,Liver TBARS,"[3]; HFD rats, 2.5 mg/kg",decreased
same,Retinal TBARS,"[3]; HFD rats, 2.5 mg/kg",reducing
same,Serum TAC,"[3]; HFD rats, 2.5 mg/kg",increased
same,Serum TBARS,"[3]; HFD rats, 2.5 mg/kg",reducing
same,Liver CAT,[3]; [9],271.57 U/mg protein
same,Liver GSHPx,[3]; [9],17.43 U/mg protein
same,Liver SOD,[3]; [9],130.43 U/mg protein
same,Liver TBARS,[3]; [9],2.98 nmol/mg protein
same,Serum TAC,[3]; [9],0.64 U/mL
same,Serum TBARS,[3]; [9],1.64 nmol/mL
same,Liver CAT,[3]; [10],increased
same,Liver GSHPx,[3]; [10],increased
same,Liver SOD,[3]; [10],increased
same,Liver TBARS,[3]; [10],decreased
same,Liver CAT,[3]; normal diet rats,306.14 U/mg protein
same,Liver GSHPx,[3]; normal diet rats,50.29 U/mg protein
same,Liver SOD,[3]; normal diet rats,198.57 U/mg protein
same,Liver TBARS,[3]; normal diet rats,1.56 nmol/mg protein
same,Serum TAC,[3]; normal diet rats,1.19 U/mL
same,Serum TBARS,[3]; normal diet rats,0.67 nmol/mL
same,Adiponectin,"[4]; HFD rats, 2.5 mg/kg",decreased
same,Glucose,"[4]; HFD rats, 2.5 mg/kg",significantly reduced
same,Insulin,"[4]; HFD rats, 2.5 mg/kg",significantly reduced
same,Leptin,"[4]; HFD rats, 2.5 mg/kg",significantly reduced
same,Adiponectin,[4]; normal diet rats,10.8 µg/mL
same,FFA,[4]; normal diet rats,1.12 mM
same,Glucose,[4]; normal diet rats,78.29 mg/dL
same,HDL-C,[4]; normal diet rats,17.00 mg/dL
same,Insulin,[4]; normal diet rats,1.73 ng/mL
same,LDL-C,[4]; normal diet rats,25.00 mg/dL
same,Leptin,[4]; normal diet rats,30.43 ng/mL
same,T-C (total cholesterol),[4]; normal diet rats,48.6 mg/dL
same,TG,[4]; normal diet rats,20.57 mg/dL
same,iNOS in retina tissue (effect in words),[5],decreased
same,Feed intake,[6]; HFD rats,16.87 g/day
same,Final BW,"[6]; HFD rats, 2.5 mg/kg",decrease
same,Liver (weight),"[6]; HFD rats, 2.5 mg/kg",decreased
same,Visceral fat,"[6]; HFD rats, 2.5 mg/kg",decreased
same,Final BW,[6]; [9],325.43 g
same,Liver (weight),[6]; [9],18.46 g
same,Visceral fat,[6]; [9],14.93 g
same,Final BW,[6]; [10],significantly reduced
same,Visceral fat,[6]; [10],a tendency towards a decrease
same,Feed intake,[6]; normal diet rats,23.88 g/day
same,Final BW,[6]; normal diet rats,290.29 g
same,Liver (weight),[6]; normal diet rats,12.74 g
same,Visceral fat,[6]; normal diet rats,7.75 g
same,enhancement of liver PPAR-α level,[7],3.53 fold
